The values below come from patent US10287305B2, “Substituted piperidine compound and use thereof” (Takeda Pharmaceutical Company Limited, priority 2016, dated 2019).

This assay concerns the target human orexin type 2 receptor (hOX2R) (Homo sapiens (Human), UniProt O43614). In words: Measurement of orexin type 2 receptor agonist activity (Experimental Example 2-1, FLIPR TETRA, intracellular Ca2+). In kind it is cell-based. Particulars: CHO dhfr- cells expressing hOX2R; for Emax: read-out: Emax (%); for Emax at 30 µM: value at 30 uM concentration, orexin B as full agonist = 100%.

[1] abbreviates: agonist activity, 10 nM human orexin B = 100%.

human orexin type 2 receptor (hOX2R), sequence (O43614 whole entry): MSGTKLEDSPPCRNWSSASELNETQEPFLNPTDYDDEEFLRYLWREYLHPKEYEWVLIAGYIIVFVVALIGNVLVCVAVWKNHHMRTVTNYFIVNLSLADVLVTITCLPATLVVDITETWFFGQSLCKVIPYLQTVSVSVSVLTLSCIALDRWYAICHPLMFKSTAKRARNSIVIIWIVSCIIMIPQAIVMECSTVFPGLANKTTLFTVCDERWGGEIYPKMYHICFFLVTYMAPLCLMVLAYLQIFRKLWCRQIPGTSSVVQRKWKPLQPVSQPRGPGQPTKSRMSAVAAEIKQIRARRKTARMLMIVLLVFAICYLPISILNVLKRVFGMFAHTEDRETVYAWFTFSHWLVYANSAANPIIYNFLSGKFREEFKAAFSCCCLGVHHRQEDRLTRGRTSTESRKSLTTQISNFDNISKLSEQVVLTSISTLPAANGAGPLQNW

What is called EC50 is the concentration at which the effect is half-maximal. High values mean weaker potency, low ones greater potency. One may read the Emax as the greatest response seen or fitted, relative to the assay's reference. Consider `CC(=O)N1CCC[C@H](NS(C)(=O)=O)[C@@H]1CO[C@H]1CC[C@@H](c2ccccc2F)CC1` [Example 240, N-((2R,3S)-1-acetyl-2-(((cis-4-(2-fluorophenyl)cyclohexyl)oxy)methyl)piperidin-3-yl)methanesulfonamide], for which, where the note is “FLIPR TETRA, Fluo-4AM”, the midpoint of the response, the EC50, lay at 24 nM and the maximal effect (Emax) stood at 107%.
`CC(=O)N1CCC[C@H](NS(C)(=O)=O)[C@@H]1CO[C@H]1CC[C@@H](c2cccc(F)c2F)CC1` [Example 19, N-((2R,3S)-1-acetyl-2-(((cis-4-(2,3-difluorophenyl)cyclohexyl)oxy)methyl)piperidin-3-yl)methanesulfonamide]: the Emax at 30 µM stood at 102%. Further, under setting [1], the response was half-maximal at 12 nM (EC50).
Take `COC(=O)N1CCC[C@H](NS(C)(=O)=O)[C@@H]1CO[C@H]1CC[C@@H](c2ccccc2C#N)CC1` (relative stereo) [Example 265, methyl cis-2-(((cis-4-(2-cyanophenyl)cyclohexyl)oxy)methyl)-3-((methylsulfonyl)amino)piperidine-1-carboxylate]: where the note is “FLIPR TETRA, Fluo-4AM”, the EC50 worked out at 2300 nM and the Emax worked out at 94%.
Molecule `COC(=O)N1CCC[C@H](NS(C)(=O)=O)[C@@H]1CO[C@H]1CC[C@@H](c2cccc(F)c2F)CC1` [Example 20, methyl (2R,3S)-2-(((cis-4-(2,3-difluorophenyl)cyclohexyl)oxy)methyl)-3-((methylsulfonyl)amino)piperidine-1-carboxylate] displayed a maximal effect (Emax) at 30 µM of 100%.
For the molecule `CS(=O)(=O)N[C@H]1CCCN[C@H]1COC1CCC(F)(c2cc(F)cc(F)c2)CC1` (relative stereo) [Example 325, N-(cis-2-(((4-(3,5-difluorophenyl)-4-fluorocyclohexyl)oxy)methyl)-piperidin-3-yl)methanesulfonamide], where the note is “FLIPR TETRA, Fluo-4AM”, the EC50 worked out at 5000 nM and the maximum response (Emax) is 75%.
As to `CCNC(=O)N1CCC[C@H](NS(C)(=O)=O)[C@@H]1CO[C@H]1CC[C@@H](c2ccccc2C(F)(F)F)CC1` [Example 282, (2R,3S)-N-ethyl-3-((methylsulfonyl)amino)-2-(((cis-4-(2-(trifluoromethyl)phenyl)cyclohexyl)oxy)methyl)piperidine-1-carboxamide], where the note is “FLIPR TETRA, Fluo-4AM”, the 50% effective concentration (EC50) was found to be 0.55 nM and the “Emax (%)” value worked out at 93%.
Turning to `CS(=O)(=O)N[C@H]1CCCN(C(=O)[C@H]2CCC(=O)O2)[C@H]1CO[C@H]1CC[C@@H](c2ccccc2)CC1` [Example 183, N-((2R,3S)-1-(((2R)-5-oxotetrahydrofuran-2-yl)carbonyl)-2-(((cis-4-phenylcyclohexyl)oxy)methyl)piperidin-3-yl)methanesulfonamide], for the setting “FLIPR TETRA, Fluo-4AM”, the EC50 was found to be 40 nM and the maximal response (Emax) came out at 94%.
Turning to `CS(=O)(=O)N[C@H]1CCCN(C(=O)C2CC2)[C@H]1CO[C@H]1CC[C@@H](c2cccc(F)c2)CC1` [Example 16, N-((2R,3S)-1-(cyclopropylcarbonyl)-2-(((cis-4-(3-fluorophenyl)cyclohexyl)oxy)methyl)piperidin-3-yl)methanesulfonamide], the Emax at 30 µM was 99%. For the same molecule, under setting [1], the concentration giving a half-maximal response (EC50) was found to be 0.84 nM.
Regarding `Cn1ccc([C@H]2CC[C@@H](OC[C@@H]3NCCC[C@@H]3NS(C)(=O)=O)CC2)n1` (relative stereo) [Example 143, N-(cis-2-(((cis-4-(1-methyl-1H-pyrazol-3-yl)cyclohexyl)oxy)methyl)piperidin-3-yl)methanesulfonamide], the Emax (FLIPR TETRA, Fluo-4AM) worked out at 96%.
Consider `CCc1ccccc1[C@H]1CC[C@@H](OC[C@H]2[C@@H](NS(C)(=O)=O)CCCN2C(C)=O)CC1` [Example 312, N-((2R,3S)-1-acetyl-2-(((cis-4-(2-ethylphenyl)cyclohexyl)oxy)methyl)-piperidin-3-yl)methanesulfonamide], for which, where the note is “FLIPR TETRA, Fluo-4AM”, the response was half-maximal at 32 nM (EC50) and the Emax is 98%.
On to `COc1ccccc1[C@H]1CC[C@@H](OC[C@H]2[C@@H](NS(C)(=O)=O)CCCN2C(C)=O)CC1` [Example 291, N-((2R,3S)-1-acetyl-2-(((cis-4-(2-methoxyphenyl)cyclohexyl)oxy)methyl)piperidin-3-yl)methanesulfonamide], for which, under “FLIPR TETRA, Fluo-4AM”, the half-maximal effective concentration (EC50) worked out at 26 nM and the Emax amounted to 98%.
In turn, `COC(=O)CCC(=O)N1CCC[C@H](NS(C)(=O)=O)[C@@H]1CO[C@H]1CC[C@@H](C(C)C)CC1` (relative stereo) [Example 55, methyl 4-(cis-2-(((cis-4-isopropylcyclohexyl)oxy)methyl)-3-((methylsulfonyl)amino)piperidin-1-yl)-4-oxobutanoate] displayed a maximum response (Emax) at 30 µM of 97%. Moreover, under setting [1], the midpoint of the response, the EC50, lay at 140 nM.
`CC(=O)N1CCC[C@H](NS(C)(=O)=O)[C@@H]1CO[C@H]1CC[C@@H](C(C)(C)F)CC1` (relative stereo) [Example 95, N-(cis-1-acetyl-2-(((cis-4-(2-fluoropropan-2-yl)cyclohexyl)oxy)methyl)piperidin-3-yl)methanesulfonamide]: the Emax at 30 µM worked out at 89%. Under setting [1], this molecule yielded a half-maximal effective concentration (EC50) of 4300 nM.
For `CCOC(=O)N1CCC[C@H](NS(C)(=O)=O)[C@@H]1CO[C@H]1CC[C@@H](C(C)C)CC1` (relative stereo) [Example 42, ethyl cis-2-(((cis-4-isopropylcyclohexyl)oxy)methyl)-3-((methylsulfonyl)amino)piperidine-1-carboxylate], the Emax at 30 µM was 97%.
In the case of `CS(=O)(=O)N[C@H]1CCCN[C@H]1CO[C@H]1CC[C@@H](c2c(F)ccc(F)c2F)CC1` [Example 21, N-((2R,3S)-2-(((cis-4-(2,3,6-trifluorophenyl)cyclohexyl)oxy)methyl)piperidin-3-yl)methanesulfonamide], the maximal effect (Emax) at 30 µM amounted to 108%. Moreover, the EC50 under setting [1] was 200 nM.
`CS(=O)(=O)N[C@H]1CCCN(C(=O)C2CC2)[C@H]1CO[C@H]1CC[C@@H](c2cccc(OC(F)(F)F)c2)CC1` (relative stereo) [Example 299, N-(cis-1-(cyclopropylcarbonyl)-2-(((cis-4-(3-(trifluoromethoxy)phenyl)cyclohexyl)oxy)methyl)piperidin-3-yl)methanesulfonamide]: under “FLIPR TETRA, Fluo-4AM”, the midpoint of the response, the EC50, lay at 95 nM and the Emax is 90%.
Consider `CC(=O)N1CCC[C@H](NS(C)(=O)=O)[C@@H]1CO[C@H]1CC[C@@H](c2ccc(F)c(F)c2)CC1` (relative stereo) [Example 141, N-(cis-1-acetyl-2-(((cis-4-(3,4-difluorophenyl)cyclohexyl)oxy)methyl)piperidin-3-yl)methanesulfonamide], for which, for the setting “FLIPR TETRA, Fluo-4AM”, a half-maximal effect (EC50) was put at 460 nM and the Emax is 95%.
Regarding `C[C@H](O)C(=O)N1CCC[C@H](NS(C)(=O)=O)[C@@H]1CO[C@H]1CC[C@@H](c2ccccc2)CC1` [Example 188, N-((2R,3S)-1-((2S)-2-hydroxypropanoyl)-2-(((cis-4-phenylcyclohexyl)oxy)methyl)piperidin-3-yl)methanesulfonamide], for the setting “FLIPR TETRA, Fluo-4AM”, the response was half-maximal at 23 nM (EC50) and the maximal effect (Emax) came to 97%.
`CC(=O)CCC(=O)N1CCC[C@H](NS(C)(=O)=O)[C@@H]1CO[C@H]1CC[C@@H](C(C)C)CC1` (relative stereo) [Example 75, N-(cis-2-(((cis-4-isopropylcyclohexyl)oxy)methyl)-1-(4-oxopentanoyl)piperidin-3-yl)methanesulfonamide]: the maximum response (Emax) at 30 µM was 88%.
In the case of `CS(=O)(=O)N[C@H]1CCCN(C(=O)C2CC2)[C@H]1CO[C@H]1CC[C@@H](C)CC1` (relative stereo) [Example 197, N-(cis-1-(cyclopropylcarbonyl)-2-(((cis-4-methylcyclohexyl)oxy)methyl)piperidin-3-yl)methanesulfonamide], the Emax (FLIPR TETRA, Fluo-4AM) amounted to 90%.
On to `COC(=O)N1CCC[C@H](NS(C)(=O)=O)[C@@H]1CO[C@H]1CC[C@@H](c2ccccc2Cl)CC1` (relative stereo) [Example 335, methyl cis-2-(((cis-4-(2-chlorophenyl)cyclohexyl)oxy)-methyl)-3-((methylsulfonyl)amino)piperidine-1-carboxylate], for which, for the setting “FLIPR TETRA, Fluo-4AM”, the midpoint of the response, the EC50, lay at 6.1 nM and the maximum response (Emax) was 101%.
For `CCOC(=O)N1CCC[C@H](NS(C)(=O)=O)[C@@H]1CO[C@H]1CC[C@@H](c2ccccc2)CC1` [Example 303, ethyl (2R,3S)-3-((methylsulfonyl)amino)-2-(((cis-4-phenylcyclohexyl)oxy)methyl)-piperidine-1-carboxylate], for the setting “FLIPR TETRA, Fluo-4AM”, a half-maximal response (EC50) required 15 nM and the Emax stood at 102%.
`CC(C)[C@H]1CC[C@@H](OC[C@H]2[C@@H](NS(C)(=O)=O)CCCN2C(=O)CC(C)(C)O)CC1` (relative stereo) [Example 73, N-(cis-1-(3-hydroxy-3-methylbutanoyl)-2-(((cis-4-isopropylcyclohexyl)oxy)methyl)piperidin-3-yl)methanesulfonamide] returned an Emax at 30 µM of 92%. The molecule also gave a 50% effective concentration (EC50) under setting [1] of 560 nM.
As to `CS(=O)(=O)N[C@H]1CCCN(C(=O)C2CC2)[C@H]1CO[C@H]1CC[C@@H](c2cc(F)ccc2F)CC1` [Example 214, N-((2R,3S)-1-(cyclopropylcarbonyl)-2-(((cis-4-(2,5-difluorophenyl)cyclohexyl)oxy)methyl)piperidin-3-yl)methanesulfonamide], for the setting “FLIPR TETRA, Fluo-4AM”, a half-maximal response (EC50) required 1.5 nM and the maximal effect (Emax) turned out to be 105%.
`COC(=O)N1CCC[C@H](NS(C)(=O)=O)[C@@H]1CO[C@H]1CC[C@@H](c2cccc(OC(F)(F)F)c2)CC1` (relative stereo) [Example 298, methyl cis-3-((methylsulfonyl)amino)-2-(((cis-4-(3-(trifluoromethoxy)phenyl)cyclohexyl)oxy)methyl)piperidine-1-carboxylate]: for the setting “FLIPR TETRA, Fluo-4AM”, the Emax was 92%.
As to `COC(=O)N1CCC[C@H](NS(C)(=O)=O)[C@@H]1CO[C@H]1CC[C@@H](c2ccn(C)n2)CC1` (relative stereo) [Example 154, methyl cis-2-(((cis-4-(1-methyl-1H-pyrazol-3-yl)cyclohexyl)oxy)methyl)-3-((methylsulfonyl)amino)piperidine-1-carboxylate], for the setting “FLIPR TETRA, Fluo-4AM”, the EC50 was determined as 2400 nM and the maximum response (Emax) was 94%.
